Assay results published in patent US20080064682A1, “Pyrazole Derivatives” (DAIICHI PHARMACEUTICAL CO., LTD., priority 2004, published 2008).
Like-named read-outs stand apart in the source and are kept apart here.

Key:
[1] = system: collagen-induced platelet aggregation; settings: background art, cited from earlier work
[2] = system: collagen-induced platelet aggregation; assay: Platelet aggregation-inhibitory action (collagen-induced aggregation in platelet rich plasma); format: cell-based; settings: human PRP, 37° C., read-out: Inhibition of collagen-induced platelet aggregation, IC50
Experimental: The blood was centrifuged at 180×g for 10 minutes to separate platelet rich plasma (PRP) from the blood. Upper layer PRP was removed, and the lower layer was centrifuged at 1600×g for 10 minutes, to thereby recover the upper layer platelet poor plasma (PPP). A solution (1 μL) of compound of the present invention was added to PRP (200 μL), and the mixture was allowed to stand at 37° C. for 2 minutes. Subsequently, collagen (2 μL) was added to the resultant mixture so as to induce platelet aggregation. Percent platelet aggregation was measured using PAM-12C (SSR Engineering). Optical transmittance of PPP was regarded as an indicator of 100% aggregation. Percent platelet aggregation values of the respective compounds were determined at different concentrations. IC50 values were calculated.

Cyclooxygenase-1 (COX-1) = target: T1, Cyclooxygenase-1 (COX-1) (Ovis aries, UniProt P05979); assay: COX Inhibitor Screening Assay Kit, COX-1 (PGF2α by ELISA); format: biochemical; settings: 50 μM compound; read-out: Inhibitory effect against COX-1 at 50 μM (% inhibition)
T1 construct: purchased Cayman Chemical Company 560101 and 560121
T1 sequence (P05979 25-600): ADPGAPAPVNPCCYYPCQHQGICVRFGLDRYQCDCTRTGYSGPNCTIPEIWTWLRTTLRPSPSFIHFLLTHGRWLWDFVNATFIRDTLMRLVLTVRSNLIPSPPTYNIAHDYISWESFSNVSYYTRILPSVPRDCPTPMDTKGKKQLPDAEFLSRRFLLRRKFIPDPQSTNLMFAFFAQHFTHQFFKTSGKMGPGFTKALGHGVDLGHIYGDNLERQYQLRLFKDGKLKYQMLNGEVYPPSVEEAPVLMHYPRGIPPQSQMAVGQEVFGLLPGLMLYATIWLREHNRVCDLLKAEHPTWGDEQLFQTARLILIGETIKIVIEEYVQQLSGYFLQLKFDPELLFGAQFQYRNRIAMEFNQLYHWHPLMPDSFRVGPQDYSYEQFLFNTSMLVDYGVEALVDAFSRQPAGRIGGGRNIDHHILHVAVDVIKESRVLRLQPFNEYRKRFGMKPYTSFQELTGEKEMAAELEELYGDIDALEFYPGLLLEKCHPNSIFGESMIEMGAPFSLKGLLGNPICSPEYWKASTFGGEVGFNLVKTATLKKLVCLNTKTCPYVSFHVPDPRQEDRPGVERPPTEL
Experimental: (§1) COX-1 inhibiting activity and COX-2 inhibiting activity of inventive compounds produced in some of the Examples herein were measured by use of a COX Inhibitor Screening Assay Kit (product of Cayman Chemical Company, Catalog Nos. 560101 and 560121).
(§2) Before starting the measurement, a reaction buffer, heme, arachidonic acid, SnCl2, EIA buffer, washing buffer, prostaglandin (PG) screening EIA standard, PG screening acetylcholine esterase (AchE), tracer ([…]), and PG screening EIA antiserum were prepared ready for use.
(§3) Production of PGF in the Presence of COX-1 or COX-2
A reaction mixture containing a compound of the present invention from the Examples (50 μM) and COX-1 or COX-2 was allowed to stand at 37° C. for 10 minutes. Arachidonic acid (10 μL) was added thereto, and the resultant mixture was further allowed to stand at 37° C. for 2 minutes. 1N-Hydrochloric acid (50 μL) was added to the reaction mixture, to thereby stop the reaction. SnCl2 solution (100 μL) was added thereto, and the resultant mixture was allowed to stand at room temperature for 5 minutes.
(§4) (2) Quantitative Determination of PGF2α Using ELISA
Antiserum (rabbit anti-PGF2α antibody, 50 μL) was added to the wells of a 96-well plate that had been coated with mouse anti-rabbit IgG. A solution of PGF2α-containing mixture obtained above (2000-fold dilution, 50 μL) and an AchE tracer (50 μL) were sequentially added to each well, and the mixture was allowed to stand at room temperature for 18 hours. The wells were washed 5 times with the washing buffer to remove an excessive AchE tracer, and an Ellman reagent (200 μL) was added. After keeping the plate in a dark room for 60 minutes, absorbance was measured at 405 nm.
(3) Calculation of Inhibitory Activity of the Compounds of the Present Invention
(§5) A calibration curve was obtained by use of a PG screening EIA standard, and the production amount of PGF2α was determined from the absorbance Percent inhibition against COX-1 or COX-2 in the presence of a 50 μM of the compound was calculated.

Cyclooxygenase-2 (COX-2) = target: T2, Cyclooxygenase-2 (COX-2) (Homo sapiens, UniProt P35354); assay: COX Inhibitor Screening Assay Kit, COX-2 (PGF2α by ELISA); format: biochemical; settings: 50 μM compound; read-out: Inhibitory effect against COX-2 at 50 μM (% inhibition)
T2 construct: purchased Cayman Chemical Company 560101 and 560121
T2 sequence (P35354 18-604): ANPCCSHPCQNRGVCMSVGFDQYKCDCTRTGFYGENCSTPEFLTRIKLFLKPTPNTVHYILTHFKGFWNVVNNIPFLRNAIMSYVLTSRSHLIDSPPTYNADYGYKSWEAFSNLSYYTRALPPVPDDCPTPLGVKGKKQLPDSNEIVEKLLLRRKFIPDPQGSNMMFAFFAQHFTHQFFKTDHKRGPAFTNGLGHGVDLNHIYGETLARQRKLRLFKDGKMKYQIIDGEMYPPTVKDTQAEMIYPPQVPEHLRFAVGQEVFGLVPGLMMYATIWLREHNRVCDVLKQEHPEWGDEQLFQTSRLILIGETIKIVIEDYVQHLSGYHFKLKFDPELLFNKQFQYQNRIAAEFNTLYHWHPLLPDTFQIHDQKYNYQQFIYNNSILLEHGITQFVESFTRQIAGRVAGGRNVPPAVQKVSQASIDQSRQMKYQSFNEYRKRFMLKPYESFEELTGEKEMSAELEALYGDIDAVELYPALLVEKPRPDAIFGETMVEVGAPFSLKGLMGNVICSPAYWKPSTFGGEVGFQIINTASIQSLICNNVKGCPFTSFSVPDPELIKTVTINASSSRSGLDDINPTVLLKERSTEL
Experimental: as §1, §2, §3
A reaction mixture containing a compound of the present invention from the Examples (50 μM) and COX-1 or COX-2 was allowed to stand at 37° C. for 10 minutes. Arachidonic acid (10 μL) was added thereto, and the resultant mixture was further allowed to stand at 37° C. for 2 minutes. […]
as §4
Antiserum (rabbit anti-PGF2α antibody, 50 μL) was added to the wells of a 96-well plate that had been coated with mouse anti-rabbit IgG. […] After keeping the plate in a dark room for 60 minutes, absorbance was measured at 405 nm. […]
as §5

Which IC50 ([1]; read-out: IC50 value against collagen-induced platelet aggregation) does the source give for CS(=O)(=O)c1ccc(-c2cc(C#N)nn2-c2ccc(F)cc2)cc1 [Compound (A)] here?
The IC50 was 5300 nM.

Which IC50 [2] does the source give for NC(=O)c1ccc(-c2cc(C(=O)N3CCC(F)(F)CC3)nn2-c2cccnc2)nc1 [Example 13, 1-[5-(5-Carbamoyl-2-pyridyl)-1-(3-pyridyl)-1H-pyrazole-3-carbonyl]-4,4-difluoropiperidine] here?
The IC50 was 130 nM.

And the inhibition at 50 µM (Cyclooxygenase-1 (COX-1))?
The inhibition at 50 µM was 10.3%.

With Cc1ccc(-c2cc(C(=O)N3CCC(F)(F)CC3)nn2-c2cccnc2)nc1 [Example 15, 1-[5-(5-Methyl-2-pyridyl)-1-(3-pyridyl)-1H-pyrazole-3-carbonyl]-4,4-difluoropiperidine] as the compound, how does the IC50 [2] read?
The IC50 was 9 nM.

And the inhibition at 50 µM (Cyclooxygenase-1 (COX-1))?
The inhibition at 50 µM was 8.1%.

For O=C(c1cc(-c2ccc(Cl)cn2)n(-c2cccnc2)n1)N1CCC(F)CC1 [Example 29, 1-[5-(5-Chloro-2-pyridyl)-1-(3-pyridyl)-1H-pyrazole-3-carbonyl]-4-fluoropiperidine], which IC50 [2] is on record?
Its IC50 is 95 nM.

What about the inhibition at 50 µM (Cyclooxygenase-2 (COX-2)) of the same compound?
Its inhibition at 50 µM is 5.3%.

What about the inhibition at 50 µM (Cyclooxygenase-1 (COX-1)) of the same compound?
The inhibition at 50 µM was -1.4%.

Which IC50 [2] does the source give for COC1CCN(C(=O)c2cc(-c3ccc(C)cn3)n(-c3cccnc3)n2)CC1 [Example 30, 1-[5-(5-Methyl-2-pyridyl)-1-(3-pyridyl)-1H-pyrazole-3-carbonyl]-4-methoxypiperidine] here?
Its IC50 is 120 nM.

And the inhibition at 50 µM (Cyclooxygenase-1 (COX-1))?
Its inhibition at 50 µM is -21.1%.

For Cc1ccc(-c2cc(C(=O)N3CCC(F)CC3)nn2-c2cccnc2)nc1 [Example 33], which IC50 [2] is on record?
Its IC50 is 31.3 nM.

And the inhibition at 50 µM (Cyclooxygenase-1 (COX-1))?
Its inhibition at 50 µM is -16.7%.

With Cc1ccc(-c2cc(C(=O)N3CCCCN3)nn2-c2cccnc2)nc1 [Example 57, 1-[5-(5-Methylpyridin-2-yl)-1-(pyridin-3-yl)-1H-pyrazole-3-carbonyl]hexahydropyridazine] as the compound, how does the IC50 [2] read?
Its IC50 is 140 nM.

What about the inhibition at 50 µM (Cyclooxygenase-1 (COX-1)) of the same compound?
Its inhibition at 50 µM is -17.4%.

What does the source list for O=C(c1cc(-c2ccc(CO)cn2)n(-c2cccnc2)n1)N1CCC(F)(F)CC1 [Example 65, 1-[5-(5-Hydroxymethylpyridin-2-yl)-1-(pyridin-3-yl)-1H-pyrazole-3-carbonyl]-4,4-difluoropiperidine]?
IC50 [2]: 130 nM; inhibition at 50 µM (Cyclooxygenase-1 (COX-1)): 5.9%

Which results are given for Cc1ccc(-c2cc(C(=O)N3CCN(C)CC3)nn2-c2cccnc2)nc1 [Example 67, 1-[5-(5-Methylpyridin-2-yl)-1-(pyridin-3-yl)-1H-pyrazole-3-carbonyl]-4-methylpiperazine]?
IC50 [2]: 190 nM; inhibition at 50 µM (Cyclooxygenase-1 (COX-1)): -21%

What does the source list for Cn1cnc(-c2cc(C(=O)N3CCC(F)(F)CC3)nn2-c2cccnc2)c1 [Example 70, 1-[5-(1-Methyl-1H-imidazol-4-yl)-1-(pyridin-3-yl)-1H-pyrazole-3-carbonyl]-4,4-difluoropiperidine]?
IC50 [2]: 280 nM; inhibition at 50 µM (Cyclooxygenase-1 (COX-1)): 5.5%

For Cc1ccc(-c2cc(C(=O)N3CCN(C)C(=O)C3)nn2-c2cccnc2)nc1 [Example 71, 1-[5-(5-Methylpyridin-2-yl)-1-(pyridin-3-yl)-1H-pyrazole-3-carbonyl]-4-methyl-3-oxopiperazine], which IC50 [2] is on record?
Its IC50 is 270 nM.

And the inhibition at 50 µM (Cyclooxygenase-1 (COX-1))?
The inhibition at 50 µM was 18.1%.

With C=C1CCN(C(=O)c2cc(-c3cn(C)cn3)n(-c3cccnc3)n2)CC1 [Example 73, 1-[5-(1-Methyl-1H-imidazol-4-yl)-1-(pyridin-3-yl)-1H-pyrazole-3-carbonyl]-4-methylenepiperidine] as the compound, how does the IC50 [2] read?
Its IC50 is 78 nM.

And the inhibition at 50 µM (Cyclooxygenase-1 (COX-1))?
Its inhibition at 50 µM is 11.9%.

With COc1ccc(-c2cc(C(F)F)nn2-c2ccc(S(N)(=O)=O)cc2)cc1F [compound (B)] as the compound, how does the “platelet aggregation inhibitory activity compared with inhibitory activity against COX-2” value [1] read?
The value was “not so potent”.
